According to paper PMC11599901, “Enhancing the solubility and antibacterial activity of novel molecular salts of enrofloxacin drug with isomeric pyridinedicarboxylic acids” (Scientific Reports, 2024):
In brackets after ≈: the same amount, converted by molar mass. Where two headings read alike, the source gives them in different places.

Columns and labels:
[1] = tested on: Streptococcus pyogenes ATCC 19615; test: Broth microdilution antibacterial activity (MIC/MBC), CLSI M07; format: cell-based; conditions: 24 h at 37 °C; for MBC (minimal bactericidal concentration) / MIC (minimal inhibitory concentration): Mueller-Hinton medium
Description: (§1) The antibacterial activity of the enrofloxacin salts was determined against two Gram-positive strains (Staphylococcus aureus ATCC 6358, Streptococcus pyogenes ATCC 19615) and two Gram-negative bacteria (Escherichia coli ATCC 25922, Pseudomonas aeruginosa ATCC 15442). The determination was performed in accordance with Clinical and Laboratory Standards Institute (CLSI) standard […] for antimicrobial susceptibility testing of aerobic bacteria. The assessment was performed using the broth microdilution method with Mueller-Hinton medium. The tested samples were accompanied by biotic controls, i.e. without the addition of newly synthesized compounds, and abiotic controls, i.e. without the addition of microorganisms. All probes were incubated for 24 h at 37 °C. Microbial growth was measured using a microplate reader (Multiskan FC Microplate Photometer, ThermoFisher Scientific, Pudong, Shanghai, China) at λ = 630 nm. The follow were determined: the minimal inhibitory concentration (MIC), defined as the lowest concentration of a compound that prevents visible growth of bacteria, and minimal bactericidal concentration (MBC), defined as the lowest concentration of a substance that completely limits the viability of microorganisms.

[2] = tested on: Pseudomonas aeruginosa ATCC 15442; test: as above; format: cell-based; conditions: 24 h at 37 °C; for MBC (minimal bactericidal concentration) / MIC (minimal inhibitory concentration): Mueller-Hinton medium
Description: as §1

[3] = tested on: Staphylococcus aureus ATCC 6358; test: as above; format: cell-based; conditions: 24 h at 37 °C; for MBC (minimal bactericidal concentration) / MIC (minimal inhibitory concentration): Mueller-Hinton medium
Description: as §1

[4] = tested on: Escherichia coli ATCC 25922; test: as above; format: cell-based; conditions: 24 h at 37 °C; for MBC (minimal bactericidal concentration) / MIC (minimal inhibitory concentration): Mueller-Hinton medium
Description: as §1

[5] = Water solubility by the gravimetric method; format: physicochemical; conditions: 25 °C
Description: Temperature was maintained using a calibrated UltraUB 20 F with a DLK 25 circulating cooler (Lauda, Germany). A specific amount of the substance under investigation was carefully weighed using a precise analytical balance (Sartorius RC 210D). The mixture of salts and water was thoroughly mixed to ensure complete dissolution of the substance under investigation and left for 2 h to achieve equilibrium between the solution and the precipitate. Then, the solution was filtered, and the remaining precipitate was dried to a constant mass to remove the solvent. The difference between the initial mass of the substance m0 and the mass of the undissolved substance m1 allowed for the determination of the mass of the substance dissolved in the given mass of solvent.
Each measurement was taken in triplicate.

[6] = cited from earlier work

MIC (minimal inhibitory concentration) [1] [µg/mL] | MIC (minimal inhibitory concentration) [2] [µg/mL] | MIC (minimal inhibitory concentration) [3] [µg/mL] | MIC (minimal inhibitory concentration) [4] [µg/mL] | SMILES | MBC (minimal bactericidal concentration) [1] [µg/mL] | MBC (minimal bactericidal concentration) [2] [µg/mL] | MBC (minimal bactericidal concentration) [3] [µg/mL] | MBC (minimal bactericidal concentration) [4] [µg/mL] | also measured
0.125 | 1 | 0.25 | 0.0078 | CCN1CCN(c2cc3c(cc2F)c(=O)c(C(=O)O)cn3C2CC2)CC1.O=C(O)c1cccnc1C(=O)O [EFX·Py2,3DCA] | 0.25 | 2 | 0.25 | 0.031 | –
0.125 | 1 | 0.25 | 0.0078 | CCN1CCN(c2cc3c(cc2F)c(=O)c(C(=O)O)cn3C2CC2)CC1.O=C(O)c1ccnc(C(=O)O)c1 [EFX·Py2,4DCA] | 0.25 | 2 | 0.25 | 0.031 | –
– | – | – | – | O=C(O)c1ccc(C(=O)O)nc1 [Py2,5DCA, pyridine-2,5-dicarboxylic acid] | – | – | – | – | solubility in water [5]: 1237 µg/mL (≈ 7400 µM)
0.125 | 1 | 0.25 | 0.0078 | CCN1CCN(c2cc3c(cc2F)c(=O)c(C(=O)O)cn3C2CC2)CC1.O.O=C(O)c1ccc(C(=O)O)nc1 [EFX·Py2,5DCA·H2O] | 0.25 | 2 | 0.25 | 0.031 | –
– | – | – | – | O=C(O)CC(O)C(=O)O (stereo not drawn) [malic acid] | – | – | – | – | solubility in water ([6]; ref 41): 16130 µg/mL (≈ 120000 µM)
– | – | – | – | CCN1CCN(c2cc3c(cc2F)c(=O)c(C(=O)O)cn3C2CC2)CC1 [EFX, 1-cyclopropyl-7-(4-ethyl-1-piperazinyl)-6-fluoro-1,4-dihydro-4-oxo-3-quinolinecarboxylic acid, reference compound] | – | – | – | – | MBC ([1]; ATCC19615, Mueller-Hinton medium, read-out: MBC (minimal bactericidal concentration)): 0.125 µg/mL (≈ 0.348 µM); MIC ([1]; ATCC19615, Mueller-Hinton medium, read-out: MIC (minimal inhibitory concentration)): 0.0625 µg/mL (≈ 0.174 µM); MBC ([2]; ATCC15442, Mueller-Hinton medium, read-out: MBC (minimal bactericidal concentration)): 1 µg/mL (≈ 2.78 µM); MIC ([2]; ATCC15442, Mueller-Hinton medium, read-out: MIC (minimal inhibitory concentration)): 0.5 µg/mL (≈ 1.39 µM); MBC ([3]; ATCC6358, Mueller-Hinton medium, read-out: MBC (minimal bactericidal concentration)): 0.25 µg/mL (≈ 0.696 µM); MIC ([3]; ATCC6358, Mueller-Hinton medium, read-out: MIC (minimal inhibitory concentration)): 0.0625 µg/mL (≈ 0.174 µM); MBC ([4]; ATCC25922, Mueller-Hinton medium, read-out: MBC (minimal bactericidal concentration)): 0.0078 µg/mL (≈ 0.0217 µM); MIC ([4]; ATCC25922, Mueller-Hinton medium, read-out: MIC (minimal inhibitory concentration)): 0.0078 µg/mL (≈ 0.0217 µM); solubility at 2 h ([5]; thermodynamic from solid): 176 µg/mL (≈ 490 µM); solubility in water ([6]; ref 34): 610 µg/mL (≈ 1700 µM); solubility in water ([6]; ref 41): 140 µg/mL (≈ 390 µM)
0.125 | 1 | 0.25 | 0.0078 | CCN1CCN(c2cc3c(cc2F)c(=O)c(C(=O)O)cn3C2CC2)CC1.O.O=C(O)c1cccc(C(=O)O)n1 [EFX·Py2,6DCA·H2O] | 0.25 | 2 | 0.25 | 0.015 | –
